Test: TP_TRANSPORTER: drug resistance(Imatinib mesylate) in BCRP-expressing SaoS2 cells

IC50: 176 nM
SMILES: CCc1c2c(nc3ccc(O)cc13)-c1cc3c(c(=O)n1C2)COC(=O)[C@]3(O)CC [7-ETHYL-10-HYDROXY-CAMPTOTHECIN]

— BindingDB's records for doi:10.1158/0008-5472.can-03-3344 (St. Jude Children'S Research Hospital, 2004)
